# From PMC8800111 (The Journal of Biological Chemistry, 2021)
# Columns and labels:
# Assay type in all cases: cell-based
# [1] = target: proteins of U3A human fibrosarcoma cells (4462 proteins detected) (Homo sapiens, UniProt O60293); settings: protein ZFC3H1; U3A cells
# [2] = target: proteins of U3A human fibrosarcoma cells (4462 proteins detected) (Homo sapiens, UniProt O60563); settings: protein CCNT1; U3A cells
# [3] = target: proteins of U3A human fibrosarcoma cells (4462 proteins detected) (Homo sapiens, UniProt O94915); settings: protein FRYL; U3A, 10 μM, 2 h
# [4] = target: proteins of U3A human fibrosarcoma cells (4462 proteins detected) (Homo sapiens, UniProt O95197); settings: protein RTN3; U3A cells
# [5] = target: proteins of U3A human fibrosarcoma cells (4462 proteins detected) (Homo sapiens, UniProt O95372); settings: protein LYPLA2; soluble abundance after heat, U3A cells
# Chain of proteins of U3A human fibrosarcoma cells (4462 proteins detected) (Homo sapiens, UniProt O95372) (O95372 whole entry): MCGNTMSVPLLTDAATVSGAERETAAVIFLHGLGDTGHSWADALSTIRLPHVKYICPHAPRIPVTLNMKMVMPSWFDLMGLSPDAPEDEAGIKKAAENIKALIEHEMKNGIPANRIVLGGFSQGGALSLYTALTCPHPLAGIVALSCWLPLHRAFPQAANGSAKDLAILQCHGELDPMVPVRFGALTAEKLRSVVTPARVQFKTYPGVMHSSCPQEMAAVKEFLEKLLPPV
# [6] = target: proteins of U3A human fibrosarcoma cells (4462 proteins detected) (Homo sapiens, UniProt P04183); settings: protein TK1; U3A cells
# Chain of proteins of U3A human fibrosarcoma cells (4462 proteins detected) (Homo sapiens, UniProt P04183) (P04183 whole entry): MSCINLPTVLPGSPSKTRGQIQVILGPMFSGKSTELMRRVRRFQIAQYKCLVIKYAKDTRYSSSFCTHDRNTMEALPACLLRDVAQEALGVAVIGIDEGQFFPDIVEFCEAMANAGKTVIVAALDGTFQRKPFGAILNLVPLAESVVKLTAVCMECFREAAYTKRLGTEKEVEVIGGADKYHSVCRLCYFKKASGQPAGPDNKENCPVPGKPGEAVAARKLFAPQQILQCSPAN
# [7] = target: proteins of U3A human fibrosarcoma cells (4462 proteins detected) (Homo sapiens, UniProt P04920); settings: protein SLC4A2; U3A cells
# [8] = target: proteins of U3A human fibrosarcoma cells (4462 proteins detected) (Homo sapiens, UniProt P05023); settings: protein ATP1A1; U3A, 10 μM, 2 h
# [9] = target: proteins of U3A human fibrosarcoma cells (4462 proteins detected) (Homo sapiens, UniProt P0C2W1); settings: protein FBXO45, U3A cells
# Chain of proteins of U3A human fibrosarcoma cells (4462 proteins detected) (Homo sapiens, UniProt P0C2W1) (P0C2W1 whole entry): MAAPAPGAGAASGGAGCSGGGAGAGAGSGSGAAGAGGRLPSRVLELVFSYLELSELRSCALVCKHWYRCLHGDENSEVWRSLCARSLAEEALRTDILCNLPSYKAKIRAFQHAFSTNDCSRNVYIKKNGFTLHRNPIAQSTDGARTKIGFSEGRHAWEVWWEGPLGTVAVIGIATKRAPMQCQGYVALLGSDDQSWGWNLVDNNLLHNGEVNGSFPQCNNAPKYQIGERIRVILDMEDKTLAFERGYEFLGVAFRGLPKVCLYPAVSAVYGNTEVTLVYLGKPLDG
# [10] = target: proteins of U3A human fibrosarcoma cells (4462 proteins detected) (Homo sapiens, UniProt P10809); settings: protein HSPD1; U3A, 10 μM, 2 h
# [11] = target: proteins of U3A human fibrosarcoma cells (4462 proteins detected) (Homo sapiens, UniProt P13693); settings: protein TPT1, U3A cells
# Chain of proteins of U3A human fibrosarcoma cells (4462 proteins detected) (Homo sapiens, UniProt P13693) (P13693 whole entry): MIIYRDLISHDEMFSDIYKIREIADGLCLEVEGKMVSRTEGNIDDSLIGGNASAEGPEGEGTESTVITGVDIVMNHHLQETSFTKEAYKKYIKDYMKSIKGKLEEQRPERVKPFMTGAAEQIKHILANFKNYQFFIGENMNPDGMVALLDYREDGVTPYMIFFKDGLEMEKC
# [12] = target: proteins of U3A human fibrosarcoma cells (4462 proteins detected) (Homo sapiens, UniProt P14866); settings: protein HNRNPL; soluble abundance after heat, U3A cells
# [13] = target: proteins of U3A human fibrosarcoma cells (4462 proteins detected) (Homo sapiens, UniProt P20042); settings: protein EIF2S2; U3A cells
# [14] = target: proteins of U3A human fibrosarcoma cells (4462 proteins detected) (Homo sapiens, UniProt P30419); settings: protein NMT1, U3A cells
# [15] = target: proteins of U3A human fibrosarcoma cells (4462 proteins detected) (Homo sapiens, UniProt P52823); settings: protein STC1; U3A, 10 μM, 2 h
# [16] = target: proteins of U3A human fibrosarcoma cells (4462 proteins detected) (Homo sapiens, UniProt P62805); settings: protein HIST1H4A; U3A, 10 μM, 2 h
# [17] = target: proteins of U3A human fibrosarcoma cells (4462 proteins detected) (Homo sapiens, UniProt Q12931); settings: protein TRAP1; U3A cells
# [18] = target: proteins of U3A human fibrosarcoma cells (4462 proteins detected) (Homo sapiens, UniProt Q32P44); settings: protein EML3, U3A cells
# Chain of proteins of U3A human fibrosarcoma cells (4462 proteins detected) (Homo sapiens, UniProt Q32P44) (Q32P44 whole entry): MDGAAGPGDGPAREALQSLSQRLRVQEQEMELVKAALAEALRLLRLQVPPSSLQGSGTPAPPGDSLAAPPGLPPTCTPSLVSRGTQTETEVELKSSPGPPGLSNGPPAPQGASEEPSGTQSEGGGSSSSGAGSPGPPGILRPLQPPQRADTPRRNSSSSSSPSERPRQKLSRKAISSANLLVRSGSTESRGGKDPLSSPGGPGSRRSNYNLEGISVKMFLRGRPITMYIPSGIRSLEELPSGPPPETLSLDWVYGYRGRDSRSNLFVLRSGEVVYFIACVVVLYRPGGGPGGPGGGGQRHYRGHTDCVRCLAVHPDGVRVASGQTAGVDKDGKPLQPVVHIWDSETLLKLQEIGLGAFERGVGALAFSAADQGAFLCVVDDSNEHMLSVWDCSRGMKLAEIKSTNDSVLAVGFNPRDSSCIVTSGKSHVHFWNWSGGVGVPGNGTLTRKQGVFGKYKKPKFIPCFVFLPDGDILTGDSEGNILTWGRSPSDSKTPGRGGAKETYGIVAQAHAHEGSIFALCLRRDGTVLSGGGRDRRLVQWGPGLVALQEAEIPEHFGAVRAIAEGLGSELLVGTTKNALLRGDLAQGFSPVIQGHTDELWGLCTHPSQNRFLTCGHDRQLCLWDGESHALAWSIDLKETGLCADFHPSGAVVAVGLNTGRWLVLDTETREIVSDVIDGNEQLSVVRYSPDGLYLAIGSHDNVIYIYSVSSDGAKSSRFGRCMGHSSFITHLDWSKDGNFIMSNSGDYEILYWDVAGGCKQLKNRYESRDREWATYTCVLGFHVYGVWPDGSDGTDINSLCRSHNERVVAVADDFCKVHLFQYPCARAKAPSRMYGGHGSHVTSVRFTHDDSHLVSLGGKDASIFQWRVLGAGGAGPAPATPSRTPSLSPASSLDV
# [19] = target: proteins of U3A human fibrosarcoma cells (4462 proteins detected) (Homo sapiens, UniProt Q7L2H7); settings: protein EIF3M; U3A cells
# [20] = target: proteins of U3A human fibrosarcoma cells (4462 proteins detected) (Homo sapiens, UniProt Q8N6T3); settings: protein ARFGAP1; U3A, 10 μM, 2 h
# Chain of proteins of U3A human fibrosarcoma cells (4462 proteins detected) (Homo sapiens, UniProt Q8N6T3) (Q8N6T3 whole entry): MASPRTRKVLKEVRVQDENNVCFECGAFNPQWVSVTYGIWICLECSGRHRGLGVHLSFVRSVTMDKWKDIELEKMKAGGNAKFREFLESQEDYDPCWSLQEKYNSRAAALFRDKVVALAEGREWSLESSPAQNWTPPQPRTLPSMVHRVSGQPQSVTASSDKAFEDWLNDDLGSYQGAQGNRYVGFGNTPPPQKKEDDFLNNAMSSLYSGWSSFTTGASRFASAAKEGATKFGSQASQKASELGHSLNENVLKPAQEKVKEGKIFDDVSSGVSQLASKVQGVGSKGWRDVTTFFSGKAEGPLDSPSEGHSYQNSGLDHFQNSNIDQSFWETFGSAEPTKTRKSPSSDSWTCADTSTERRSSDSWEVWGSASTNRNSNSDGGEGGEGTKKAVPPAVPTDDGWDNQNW
# [21] = target: proteins of U3A human fibrosarcoma cells (4462 proteins detected) (Homo sapiens, UniProt Q92888); settings: protein ARHGEF1; U3A cells
# [22] = target: proteins of U3A human fibrosarcoma cells (4462 proteins detected) (Homo sapiens, UniProt Q93008); settings: protein USP9X; soluble abundance after heat, U3A cells
# [23] = target: proteins of U3A human fibrosarcoma cells (4462 proteins detected) (Homo sapiens, UniProt Q9BXY0); settings: protein MAK16; soluble abundance after heat, U3A cells
# [24] = target: proteins of U3A human fibrosarcoma cells (4462 proteins detected) (Homo sapiens, UniProt Q9H4A3); settings: protein WNK1, U3A cells
# [25] = target: proteins of U3A human fibrosarcoma cells (4462 proteins detected) (Homo sapiens, UniProt Q9HC44); settings: protein GPBP1L1; soluble abundance after heat, U3A cells
# [26] = target: proteins of U3A human fibrosarcoma cells (4462 proteins detected) (Homo sapiens, UniProt Q9NQZ2); settings: protein UTP3; soluble abundance after heat, U3A cells
# Chain of proteins of U3A human fibrosarcoma cells (4462 proteins detected) (Homo sapiens, UniProt Q9NQZ2) (Q9NQZ2 whole entry): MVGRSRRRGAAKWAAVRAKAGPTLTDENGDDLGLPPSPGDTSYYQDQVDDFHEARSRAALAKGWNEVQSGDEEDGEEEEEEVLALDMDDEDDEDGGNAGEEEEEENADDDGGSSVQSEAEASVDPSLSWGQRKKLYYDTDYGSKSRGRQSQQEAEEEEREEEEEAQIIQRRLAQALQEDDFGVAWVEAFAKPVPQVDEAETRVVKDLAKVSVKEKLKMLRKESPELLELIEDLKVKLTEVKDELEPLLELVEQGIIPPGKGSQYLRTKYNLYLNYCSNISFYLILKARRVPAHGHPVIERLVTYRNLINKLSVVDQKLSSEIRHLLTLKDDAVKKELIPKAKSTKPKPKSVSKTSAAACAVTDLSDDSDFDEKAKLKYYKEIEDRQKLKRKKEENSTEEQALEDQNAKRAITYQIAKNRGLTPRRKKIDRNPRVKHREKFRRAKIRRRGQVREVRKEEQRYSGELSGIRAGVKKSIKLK
# [27] = target: proteins of U3A human fibrosarcoma cells (4462 proteins detected) (Homo sapiens, UniProt Q9NVH2); settings: protein INTS7; soluble abundance after heat, U3A cells
# [28] = target: proteins of U3A human fibrosarcoma cells (4462 proteins detected) (Homo sapiens, UniProt Q9NYY8); settings: protein FASTKD2; U3A cells
# [29] = target: proteins of U3A human fibrosarcoma cells (4462 proteins detected) (Homo sapiens, UniProt Q9Y6A4); settings: protein CFAP20; soluble abundance after heat, U3A cells
# Chain of proteins of U3A human fibrosarcoma cells (4462 proteins detected) (Homo sapiens, UniProt Q9Y6A4) (Q9Y6A4 whole entry): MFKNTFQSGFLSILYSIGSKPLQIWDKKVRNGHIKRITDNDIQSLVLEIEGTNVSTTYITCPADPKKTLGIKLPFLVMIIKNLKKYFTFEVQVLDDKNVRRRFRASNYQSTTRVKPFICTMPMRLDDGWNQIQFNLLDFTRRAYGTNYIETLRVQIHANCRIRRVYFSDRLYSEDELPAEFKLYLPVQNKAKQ
# Chain of proteins of U3A human fibrosarcoma cells (4462 proteins detected) (Homo sapiens, UniProt O60293) (O60293 whole entry): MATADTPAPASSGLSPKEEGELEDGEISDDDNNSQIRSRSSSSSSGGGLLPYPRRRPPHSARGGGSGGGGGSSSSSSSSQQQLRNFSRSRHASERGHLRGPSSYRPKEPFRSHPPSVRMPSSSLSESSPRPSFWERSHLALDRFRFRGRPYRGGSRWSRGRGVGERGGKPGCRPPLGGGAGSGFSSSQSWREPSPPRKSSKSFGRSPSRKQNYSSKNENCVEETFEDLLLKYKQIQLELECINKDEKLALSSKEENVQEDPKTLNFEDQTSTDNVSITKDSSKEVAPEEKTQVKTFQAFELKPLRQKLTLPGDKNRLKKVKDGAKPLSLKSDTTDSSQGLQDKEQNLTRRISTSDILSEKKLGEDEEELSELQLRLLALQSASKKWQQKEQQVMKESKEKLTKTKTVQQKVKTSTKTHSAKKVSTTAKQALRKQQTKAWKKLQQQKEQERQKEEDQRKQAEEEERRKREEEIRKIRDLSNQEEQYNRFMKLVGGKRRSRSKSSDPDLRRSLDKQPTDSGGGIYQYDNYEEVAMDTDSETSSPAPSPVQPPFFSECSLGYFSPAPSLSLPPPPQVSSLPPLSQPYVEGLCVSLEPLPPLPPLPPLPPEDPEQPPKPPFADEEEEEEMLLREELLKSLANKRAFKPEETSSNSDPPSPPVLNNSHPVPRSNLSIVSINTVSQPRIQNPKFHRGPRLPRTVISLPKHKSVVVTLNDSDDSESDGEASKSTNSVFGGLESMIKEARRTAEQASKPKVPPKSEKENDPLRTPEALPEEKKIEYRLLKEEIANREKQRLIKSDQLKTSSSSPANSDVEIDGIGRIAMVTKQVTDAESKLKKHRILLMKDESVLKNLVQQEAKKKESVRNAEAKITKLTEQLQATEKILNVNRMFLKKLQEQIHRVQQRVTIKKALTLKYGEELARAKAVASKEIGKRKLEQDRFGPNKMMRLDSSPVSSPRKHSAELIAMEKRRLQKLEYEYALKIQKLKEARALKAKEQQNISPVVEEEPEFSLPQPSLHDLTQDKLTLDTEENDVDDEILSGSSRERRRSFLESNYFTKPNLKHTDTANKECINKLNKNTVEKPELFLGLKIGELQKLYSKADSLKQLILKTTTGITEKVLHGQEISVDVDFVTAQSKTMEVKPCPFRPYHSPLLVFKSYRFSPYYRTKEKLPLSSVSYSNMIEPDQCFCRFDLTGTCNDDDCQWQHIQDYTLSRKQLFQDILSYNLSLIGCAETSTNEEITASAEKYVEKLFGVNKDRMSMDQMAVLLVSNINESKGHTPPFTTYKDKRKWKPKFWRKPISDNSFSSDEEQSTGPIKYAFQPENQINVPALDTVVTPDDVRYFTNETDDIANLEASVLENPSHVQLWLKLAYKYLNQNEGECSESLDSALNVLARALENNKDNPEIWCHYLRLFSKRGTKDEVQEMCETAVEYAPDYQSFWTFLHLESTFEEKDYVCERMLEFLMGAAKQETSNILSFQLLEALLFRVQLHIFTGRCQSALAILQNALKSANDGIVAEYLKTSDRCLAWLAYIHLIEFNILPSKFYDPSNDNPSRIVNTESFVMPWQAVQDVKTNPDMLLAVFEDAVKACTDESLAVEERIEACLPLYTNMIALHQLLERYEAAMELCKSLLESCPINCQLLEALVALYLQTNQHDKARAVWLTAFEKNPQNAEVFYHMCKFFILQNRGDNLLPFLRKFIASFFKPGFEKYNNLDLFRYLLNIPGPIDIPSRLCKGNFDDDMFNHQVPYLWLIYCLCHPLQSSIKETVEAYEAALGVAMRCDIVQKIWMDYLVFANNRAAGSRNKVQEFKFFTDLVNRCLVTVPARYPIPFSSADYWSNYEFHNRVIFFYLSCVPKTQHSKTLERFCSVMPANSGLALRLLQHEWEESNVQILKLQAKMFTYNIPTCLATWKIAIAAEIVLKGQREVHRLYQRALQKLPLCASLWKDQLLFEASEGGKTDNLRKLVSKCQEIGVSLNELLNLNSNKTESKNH
smiles,measurement,setting,value
CCc1nc(N)nc(N)c1-c1ccc(Cl)cc1 [pyrimethamine],Log2 (PYR/DMSO),[1],0.18
same,Log2 (PYR/DMSO),[2],0.18
same,"Log2 (PYR/DMSO), FRYL",[3],0.28
same,Log2 (PYR/DMSO),[4],0.16
same,Log2 (PYR/DMSO),[5],0.15
same,Log2 (PYR/DMSO),[6],0.19
same,Log2 (PYR/DMSO),[7],0.16
same,"Log2 (PYR/DMSO), ATP1A1",[8],0.37
same,Log2 (PYR/DMSO),[9],-0.04
same,"Log2 (PYR/DMSO), HSPD1",[10],0.35
same,Log2 (PYR/DMSO),[11],-0.05
same,Log2 (PYR/DMSO),[12],0.15
same,Log2 (PYR/DMSO),[13],0.17
same,Log2 (PYR/DMSO),[14],-0.05
same,"Log2 (PYR/DMSO), STC1",[15],0.25
same,"Log2 (PYR/DMSO), HIST1H4A",[16],0.28
same,Log2 (PYR/DMSO),[17],0.21
same,Log2 (PYR/DMSO),[18],-0.05
same,Log2 (PYR/DMSO),[19],0.18
same,"Log2 (PYR/DMSO), ARFGAP1",[20],-0.14
same,Log2 (PYR/DMSO),[21],0.18
same,Log2 (PYR/DMSO),[22],0.14
same,Log2 (PYR/DMSO),[23],0.14
same,Log2 (PYR/DMSO),[24],-0.04
same,Log2 (PYR/DMSO),[25],0.14
same,Log2 (PYR/DMSO),[26],0.15
same,Log2 (PYR/DMSO),[27],0.15
same,Log2 (PYR/DMSO),[28],0.21
same,Log2 (PYR/DMSO),[29],0.14
